How the values were obtained:
[1] = Rodent pharmacokinetics (rat PK); assay type: in vivo; settings: po, dosed intravenously or orally by gavage, plasma, read-out: F % (bioavailability)
Summary of the method: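 Rats were dosed IV or by oral gavage, with jugular blood taken predose and at 5 min (IV only), 15, 30 min and 1, 2, 4, 8, 24 h. Plasma was separated by centrifugation at 4 °C. Oral bioavailability (F %) is coded A (≥5%) or B (≤5%).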

IRAK4 = biological target: T1, IRAK4 (Homo sapiens, UniProt Q9NWZ3); assay: IRAK4 MSD degradation in OCI-LY10; assay type: cell-based; settings: OCI-LY10 cells, 24 hrs, Meso Scale Discovery
T1 construct: endogenous in cells; host or cells: OCI-LY10
T1 sequence (Q9NWZ3 1-460): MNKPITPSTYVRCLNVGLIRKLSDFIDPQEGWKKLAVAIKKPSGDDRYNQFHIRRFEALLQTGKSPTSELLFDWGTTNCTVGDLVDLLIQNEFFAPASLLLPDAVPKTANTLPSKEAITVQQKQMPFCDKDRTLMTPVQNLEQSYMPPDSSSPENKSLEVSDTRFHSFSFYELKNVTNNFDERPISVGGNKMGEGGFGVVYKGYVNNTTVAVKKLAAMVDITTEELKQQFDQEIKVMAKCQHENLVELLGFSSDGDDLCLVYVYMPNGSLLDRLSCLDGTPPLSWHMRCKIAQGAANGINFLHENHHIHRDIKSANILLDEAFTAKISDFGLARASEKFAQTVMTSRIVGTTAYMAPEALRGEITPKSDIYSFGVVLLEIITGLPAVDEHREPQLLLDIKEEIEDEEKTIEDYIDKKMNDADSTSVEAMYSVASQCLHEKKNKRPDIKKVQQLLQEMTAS
Summary of the method: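 OCI-LY10 cells treated 4 to 24 hours at 37° C. with 8-dose 1:3 series, top 1 to 10 μM. IRAK4 in lysates quantified by MSD sandwich immunoassay (mouse capture, rabbit detection, SULFO-TAG anti-rabbit). DC50 from three-parameter logistic fit.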

With `COc1cc2nn([C@H]3CC[C@H](CN4CC[C@@H](c5cccc6c5n(C)c(=O)n6C5CCC(=O)NC5=O)[C@H](F)C4)CC3)cc2cc1C(=O)Nc1cncc(C(F)(F)F)c1` (some centres unmarked) [I-283] the bioavailability [1] was ≤ 5% and the DC50 (IRAK4) was < 10 nM.
With `COc1cc2nc([C@H]3CC[C@H](CN4CC[C@@H](c5cccc6c5n(C)c(=O)n6C5CCC(=O)NC5=O)[C@H](F)C4)CC3)oc2cc1NC(=O)c1cncc(C(F)(F)F)n1` (some centres unmarked) [I-284] the bioavailability [1] was ≤ 5% and the DC50 (IRAK4) was 10 to 100 nM.
With `Cc1cc2nn([C@H]3CC[C@H](CN4CC[C@@H](c5cccc6c5n(C)c(=O)n6C5CCC(=O)NC5=O)[C@H](F)C4)CC3)cc2cc1NC(=O)c1cncc(C(F)(F)F)n1` (some centres unmarked) [I-286] the bioavailability [1] was ≤ 5% and the DC50 (IRAK4) was < 10 nM.
With `Cn1c(=O)n(C2CCC(=O)NC2=O)c2cccc([C@@H]3CCN(C[C@H]4CC[C@H](c5nc6cc(C(C)(C)O)c(NC(=O)c7cncc(C(F)(F)F)n7)cc6o5)CC4)C[C@H]3F)c21` (some centres unmarked) [I-288] the bioavailability [1] was ≥ 5% and the DC50 (IRAK4) was < 10 nM.
In the case of `COc1cc2nn([C@H]3CC[C@H](CN4CC[C@@H](c5cccc6c5n(C)c(=O)n6C5CCC(=O)NC5=O)[C@H](F)C4)CC3)cc2cc1C(=O)Nc1cncc(C(F)(F)F)n1` (some centres unmarked) [I-290], the bioavailability [1] was ≤ 5% and the DC50 (IRAK4) was < 10 nM.
For `Cn1c(=O)n(C2CCC(=O)NC2=O)c2cccc([C@@H]3CCN(C[C@H]4CC[C@H](n5cc6cc(NC(=O)c7cncc(C(F)(F)F)n7)c(F)cc6n5)CC4)C[C@H]3F)c21` (some centres unmarked) [I-296], the bioavailability [1] was ≤ 5% and the DC50 (IRAK4) was < 10 nM.
With `O=C1CCN(c2cc(C(=O)N3CCN(C[C@H]4CC[C@H](n5cc6cc(NC(=O)c7cncc(C(F)(F)F)n7)ccc6n5)CC4)CC3)ncc2Cl)C(=O)N1` [I-305] the bioavailability [1] was ≤ 5% and the DC50 (IRAK4) was > 200 nM.
In the case of `Cc1cncc(C(=O)Nc2ccc3nn([C@H]4CC[C@H](CN5CC[C@@H](c6cccc7c6n(C)c(=O)n7C6CCC(=O)NC6=O)[C@H](F)C5)CC4)cc3c2)n1` (some centres unmarked) [I-307], the bioavailability [1] was ≤ 5% and the DC50 (IRAK4) was < 10 nM.
For `COc1cc2nc([C@H]3CC[C@H](CN4CC[C@@H](c5cccc6c5n(C)c(=O)n6C5CCC(=O)NC5=O)[C@H](F)C4)CC3)cn2cc1NC(=O)c1cncc(C(F)(F)F)n1` (some centres unmarked) [I-308], the bioavailability [1] was ≤ 5% and the DC50 (IRAK4) was < 10 nM.
For `Cc1cncc(C(=O)Nc2cc3cn([C@H]4CC[C@H](CN5CC[C@@H](c6cccc7c6n(C)c(=O)n7C6CCC(=O)NC6=O)[C@H](F)C5)CC4)nc3cn2)n1` (some centres unmarked) [I-310], the bioavailability [1] was ≤ 5% and the DC50 (IRAK4) was < 10 nM.
For `Cn1c(=O)n(C2CCC(=O)NC2=O)c2cccc([C@@H]3CCN(C[C@H]4CC[C@H](n5cc6cc(NC(=O)c7cncc(C8CC8)n7)ccc6n5)CC4)C[C@H]3F)c21` (some centres unmarked) [I-311], the bioavailability [1] was ≤ 5% and the DC50 (IRAK4) was < 10 nM.
With `Cc1nn(C2CCC(=O)NC2=O)c2cccc(N3CCC4(CCN(C[C@H]5CC[C@H](n6cc7cc(NC(=O)c8cncc(C#N)c8)c(C(C)(C)O)cc7n6)CC5)CC4(F)F)CC3)c12` (some centres unmarked) [I-312] the bioavailability [1] was ≤ 5% and the DC50 (IRAK4) was 10 to 100 nM.
With `Cn1c(=O)n(C2CCC(=O)NC2=O)c2cccc([C@@H]3CCN(C[C@H]4CC[C@H](n5cc6cc(NC(=O)c7cncc(C(F)F)n7)ncc6n5)CC4)C[C@H]3F)c21` (some centres unmarked) [I-321] the bioavailability [1] was ≤ 5% and the DC50 (IRAK4) was < 10 nM.
For `Cn1c(=O)n(C2CCC(=O)NC2=O)c2cccc([C@@H]3CCN(C[C@H]4CC[C@H](n5cc6cc(NC(=O)c7cncc(C(C)(C)C)n7)ncc6n5)CC4)C[C@H]3F)c21` (some centres unmarked) [I-322], the bioavailability [1] was ≤ 5% and the DC50 (IRAK4) was < 10 nM.
For `Cn1c(=O)n(C2CCC(=O)NC2=O)c2cccc([C@@H]3CCN(C[C@H]4CC[C@H](n5cc6cc(NC(=O)c7cncc(C(F)F)n7)ccc6n5)CC4)C[C@H]3F)c21` (some centres unmarked) [I-323], the bioavailability [1] was ≤ 5% and the DC50 (IRAK4) was < 10 nM.
With `Cn1c(=O)n(C2CCC(=O)NC2=O)c2cccc([C@@H]3CCN(C[C@H]4CC[C@H](n5cc6cc(NC(=O)c7cncc(C(C)(C)C)n7)ccc6n5)CC4)C[C@H]3F)c21` (some centres unmarked) [I-324] the bioavailability [1] was ≤ 5% and the DC50 (IRAK4) was < 10 nM.
With `Cn1c(=O)n(C2CCC(=O)NC2=O)c2cccc(N3CC4(CCN(C[C@H]5CC[C@H](n6cc7cc(NC(=O)c8cncc(C(F)(F)F)n8)c(C(C)(C)O)cc7n6)CC5)CC4(F)F)C3)c21` (some centres unmarked) [I-326] the bioavailability [1] was ≥ 5% and the DC50 (IRAK4) was < 10 nM.
In the case of `Cn1c(=O)n(C2CCC(=O)NC2=O)c2cccc([C@@H]3CCN(C[C@H]4CC[C@H](n5cc6cc(NC(=O)c7cncc(OC(F)F)n7)ncc6n5)CC4)C[C@H]3F)c21` (some centres unmarked) [I-337], the bioavailability [1] was ≤ 5% and the DC50 (IRAK4) was < 10 nM.
For `Cn1c(=O)n(C2CCC(=O)NC2=O)c2cccc([C@@H]3CCN(C[C@H]4CC[C@H](n5cc6cc(NC(=O)c7cncc(C8CC8)n7)ncc6n5)CC4)C[C@H]3F)c21` (some centres unmarked) [I-338], the bioavailability [1] was ≤ 5% and the DC50 (IRAK4) was < 10 nM.
With `Cn1c(=O)n(C2CCC(=O)NC2=O)c2cccc([C@@H]3CCN(C[C@H]4CC[C@H](n5cc6cc(NC(=O)c7cncc(OC(F)F)n7)ccc6n5)CC4)C[C@H]3F)c21` (some centres unmarked) [I-339] the bioavailability [1] was ≤ 5% and the DC50 (IRAK4) was < 10 nM.
For `Cc1cncc(C(=O)Nc2cc3cn([C@H]4CC[C@H](CN5CCC6(CN(c7cccc8c7n(C)c(=O)n8C7CCC(=O)NC7=O)C6)C(F)(F)C5)CC4)nc3cc2C(C)(C)O)c1` (some centres unmarked) [I-342], the bioavailability [1] was ≤ 5% and the DC50 (IRAK4) was < 10 nM.
For `Cn1c(=O)n(C2CCC(=O)NC2=O)c2cccc([C@@H]3CCN(C[C@H]4CC[C@H](c5cn6cc(NC(=O)c7cncc(C(F)(F)F)n7)c(C(C)(C)O)cc6n5)CC4)C[C@H]3F)c21` (some centres unmarked) [I-343], the bioavailability [1] was ≤ 5% and the DC50 (IRAK4) was < 10 nM.
For `Cn1c(=O)n(C2CCC(=O)NC2=O)c2cccc([C@@H]3CCN(C[C@H]4CC[C@H](n5cc6cc(NC(=O)c7cncc(C(F)(F)F)n7)c(S(C)(=O)=O)cc6n5)CC4)C[C@H]3F)c21` (some centres unmarked) [I-346], the bioavailability [1] was ≤ 5% and the DC50 (IRAK4) was < 10 nM.
With `COc1ccc2c(c1[C@@H]1CCN(C[C@H]3CC[C@H](n4cc5cc(NC(=O)c6cncc(C(F)(F)F)n6)ccc5n4)CC3)C[C@H]1F)n(C)c(=O)n2C1CCC(=O)NC1=O` (some centres unmarked) [I-347] the bioavailability [1] was ≥ 5% and the DC50 (IRAK4) was < 10 nM.
For `COc1ccc2c(c1[C@H]1CCN(C[C@H]3CC[C@H](n4cc5cc(NC(=O)c6cncc(C(F)(F)F)n6)ccc5n4)CC3)C[C@@H]1F)n(C)c(=O)n2C1CCC(=O)NC1=O` (some centres unmarked) [I-352], the bioavailability [1] was ≤ 5% and the DC50 (IRAK4) was < 10 nM.
For `COc1cc(NC(=O)c2cncc(C(F)(F)F)n2)cc2cn([C@H]3CC[C@H](CN4CC[C@@H](c5cccc6c5n(C)c(=O)n6C5CCC(=O)NC5=O)[C@H](F)C4)CC3)nc12` (some centres unmarked) [I-355], the bioavailability [1] was ≤ 5% and the DC50 (IRAK4) was < 10 nM.
With `Cn1c(=O)n(C2CCC(=O)NC2=O)c2cccc([C@@H]3CCN(C[C@H]4CC[C@H](n5cc6cc(NC(=O)c7cncc(C(F)(F)F)n7)cc(F)c6n5)CC4)C[C@H]3F)c21` (some centres unmarked) [I-356] the bioavailability [1] was ≤ 5% and the DC50 (IRAK4) was < 10 nM.
In the case of `Cc1cncc(C(=O)Nc2cc3cn([C@H]4CC[C@H](CN5CCC6(CCN(c7cccc8c7n(C)c(=O)n8C7CCC(=O)NC7=O)CC6)C(F)(F)C5)CC4)nc3cc2C(C)(C)O)c1` (some centres unmarked) [I-361], the bioavailability [1] was ≤ 5% and the DC50 (IRAK4) was < 10 nM.
With `Cn1c(=O)n(C2CCC(=O)NC2=O)c2cccc(N3CCC4(CCN(C[C@H]5CC[C@H](c6nc7cc(C(C)(C)O)c(NC(=O)c8cncc(C#N)c8)cc7s6)CC5)CC4(F)F)CC3)c21` (some centres unmarked) [I-364] the bioavailability [1] was ≤ 5% and the DC50 (IRAK4) was 100 to 200 nM.
With `Cn1c(=O)n(C2CCC(=O)NC2=O)c2cccc(N3CCC4(CCN(C[C@H]5CC[C@H](n6cc7cc(NC(=O)c8cncc(C(F)(F)F)c8)c(C(C)(C)O)cc7n6)CC5)CC4(F)F)CC3)c21` (some centres unmarked) [I-365] the bioavailability [1] was ≥ 5% and the DC50 (IRAK4) was < 10 nM.
In the case of `Cn1c(=O)n(C2CCC(=O)NC2=O)c2cccc(N3CC4(CCN(C[C@H]5CC[C@H](n6cc7cc(NC(=O)c8cncc(C#N)c8)c(C(C)(C)O)cc7n6)CC5)CC4(F)F)C3)c21` (some centres unmarked) [I-366], the bioavailability [1] was ≤ 5% and the DC50 (IRAK4) was < 10 nM.
With `Cn1c(=O)n(C2CCC(=O)NC2=O)c2cccc(N3CC4(CCN(C[C@H]5CC[C@H](c6nc7cc(C(C)(C)O)c(NC(=O)c8cncc(C#N)c8)cc7s6)CC5)CC4(F)F)C3)c21` (some centres unmarked) [I-367] the bioavailability [1] was ≥ 5% and the DC50 (IRAK4) was 10 to 100 nM.
For `Cn1c(=O)n(C2CCC(=O)NC2=O)c2cccc(N3CC4(CCN(C[C@H]5CC[C@H](n6cc7cc(NC(=O)c8cncc(C(F)(F)F)c8)c(C(C)(C)O)cc7n6)CC5)CC4(F)F)C3)c21` (some centres unmarked) [I-373], the bioavailability [1] was ≤ 5% and the DC50 (IRAK4) was < 10 nM.
For `COc1cc(NC(=O)c2cncc(C(F)(F)F)n2)cc2cn([C@H]3CC[C@H](CN4CC[C@@H](c5cccc6c5n(C)c(=O)n6C5CCC(=O)NC5=O)C(F)(F)C4)CC3)nc12` (some centres unmarked) [I-374], the bioavailability [1] was ≤ 5% and the DC50 (IRAK4) was < 10 nM.
In the case of `Cn1c(=O)n(C2CCC(=O)NC2=O)c2cccc([C@@H]3CCN(C[C@H]4CC[C@H](n5cc6cc(NC(=O)c7cncc(C(F)(F)F)n7)cc(F)c6n5)CC4)CC3(F)F)c21` (some centres unmarked) [I-375], the bioavailability [1] was ≤ 5% and the DC50 (IRAK4) was < 10 nM.
With `Cn1c(=O)n(C2CCC(=O)NC2=O)c2cccc([C@@H]3CCN(C[C@H]4CC[C@H](n5cc6cc(NC(=O)c7cncc(C(F)F)n7)ccc6n5)CC4)CC3(F)F)c21` (some centres unmarked) [I-384] the bioavailability [1] was ≤ 5% and the DC50 (IRAK4) was < 10 nM.
For `Cn1c(=O)n(C2CCC(=O)NC2=O)c2cccc(N3CCC4(CCN(C[C@H]5CC[C@H](n6cc7cc(NC(=O)c8cncc(F)c8)c(C(C)(C)O)cc7n6)CC5)CC4(F)F)CC3)c21` (some centres unmarked) [I-386], the bioavailability [1] was ≥ 5% and the DC50 (IRAK4) was < 10 nM.

From patent US20250059164A1, “IRAK DEGRADERS AND USES THEREOF” (Kymera Therapeutics, Inc., priority 2023, published 2025)
